Biological target: T1, human PPAR alpha (Homo sapiens, UniProt Q07869)
T1 sequence (Q07869 1-468): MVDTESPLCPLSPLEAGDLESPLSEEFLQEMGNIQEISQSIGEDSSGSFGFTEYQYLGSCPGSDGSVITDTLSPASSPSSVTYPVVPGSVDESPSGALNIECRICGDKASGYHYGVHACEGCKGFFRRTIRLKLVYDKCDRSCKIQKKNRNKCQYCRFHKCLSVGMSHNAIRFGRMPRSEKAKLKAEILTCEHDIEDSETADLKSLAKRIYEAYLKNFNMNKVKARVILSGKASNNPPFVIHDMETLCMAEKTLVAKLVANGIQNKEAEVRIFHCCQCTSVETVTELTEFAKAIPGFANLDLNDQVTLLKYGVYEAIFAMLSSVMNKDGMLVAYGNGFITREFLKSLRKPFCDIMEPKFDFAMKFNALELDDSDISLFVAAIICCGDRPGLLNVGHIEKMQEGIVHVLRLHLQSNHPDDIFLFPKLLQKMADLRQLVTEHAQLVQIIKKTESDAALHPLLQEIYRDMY
Experiment: Effectiveness of Compound 1 at very low daily dosage regimes
Assay type: in vivo
Details: investigated for dyslipidemia, syndrome X and atherosclerosis
Description: The compound of formula (1) is a particularly preferred PPAR alpha agonist and is described in WO 01/40207 as being of use in human PPAR alpha mediated diseases. The dosage regime contemplated in WO 01/40207 is 0.02-5000 mg per day. […] Thus the invention further provides a pharmaceutical composition comprising less than 1-100 μg Compound (1) or pharmaceutically acceptable salts, solvates and physiologically functional derivatives thereof together with a pharmaceutically acceptable carrier. Preferably the composition comprises less than 20 μg, more preferably 1-18 μg, most preferably 1-10 μg.

With `Cc1nc(-c2ccc(C(F)(F)F)cc2)sc1C(=O)NCc1ccc(OC(C)(C)C(=O)O)cc1` [Compound 1, 2-methyl-2-[4-{[(4-methyl-2-[4-trifluoromethylphenyl]-thiazol-5-ylcarbonyl)amino]methyl}phenoxy]propionic acid] the “Dosage regime at which the compound is effective” value was “less than 0.02 mg per day”.
